Broadly, the IC50 is the point on the concentration scale where inhibition reaches its midpoint.

The target of assay [1] is rat VAP-1 enzyme (SSAO) (Rattus norvegicus (Rat), UniProt O08590). The experiment in a line: Inhibitory effect on rat VAP-1 enzyme (SSAO) activity, radiochemistry-enzymatic assay with 14C-benzylamine. The format is biochemical. As to conditions: CHO-expressed rat VAP-1, 14C-benzylamine 1×10^−5 mol/L. The procedure: (§1) After homogenizing CHO (Chinese Hamster Ovary) cells stably expressing a rat VAP-1 enzyme (SSAO) in a 50 mM phosphate buffer containing 1% NP-40, an enzyme suspension was obtained by taking the supernatant obtained by centrifugation. The enzyme suspension was preincubated with the compound of the present invention in a 96-well microplate at room temperature for 30 minutes. Subsequently, the enzyme suspension was incubated with ^14C-benzylamine (a final concentration of 1×10^−5 mol/L) to a final volume of […] at 37° C. for 1 hour. The enzymatic reaction was stopped by the addition of 2 mol/L (50 μL) of citric acid. The oxidation products were extracted directly in a 200 μL toluene scintillator, and the radioactivity was measured with a scintillation spectrometer.

The target of assay [2] is human VAP-1 enzyme (SSAO) (Homo sapiens (Human), UniProt Q16853). The experiment in a line: Inhibitory effect on human VAP-1 enzyme (SSAO) activity, radiochemistry-enzymatic assay with 14C-benzylamine. The assay is classed as biochemical. As to conditions: CHO-expressed human VAP-1, 14C-benzylamine 1×10^−5 mol/L. Here is the method: as §1, with “a human” for “a rat”, “[…]” for “(50 μL)”, “acid.” for “acid. The oxidation products were extracted directly in a 200 μL toluene scintillator, and the radioactivity was measured with a scintillation spectrometer.”

The subject of assay [3] is VAP-1 enzyme (SSAO) activity in rat plasma. The assay can be described thus: Inhibitory effect on rat VAP-1 enzyme (SSAO) activity in rat plasma after oral administration. As to conditions: rat plasma VAP-1 activity, oral 0.3 mg/kg; for Inhibition Ratio (%) 1 h: 1 h after administration; for Inhibition Ratio (%) 3 h: 3 h after administration; for Inhibition Ratio (%) 6 h: 6 h after administration; for Inhibition Ratio (%) 24 h: 24 h after administration. The assay is classed as in vivo, Wistar male rats. The procedure:
Eight-week to twelve-week Wistar male rats were fasted for 20 hours, and orally administered with a test drug ([…]). Heparin blood collection from the tail vein was performed immediately before the administration, and at 1 h, 3 h, 6 h, 12 h, or 24 h after the administration. The resulting blood was subjected to centrifugation at 14000 rpm for 5 minutes to separate plasma, and the VAP-1 enzyme activity in the resulting plasma was measured by a radio-enzyme assay method.
For the radio-enzyme assay method, ^14C-benzylamine which is a synthetic substrate (10 μM) was reacted with the resulting plasma at 37° C., and the resulting metabolite was extracted with a mixture of toluene/ethyl acetate. The radioactivity was measured and taken as a VAP-1 enzyme activity in the plasma. The effect of the test drug was calculated from the inhibitory ratio (%) of the VAP-1 activity after the administration of the test drug relative to the VAP-1 activity in the plasma immediately before the administration.

Assay [4] concerns albuminuria in STZ-treated rats. The assay can be described thus: Effect on albuminuria in rats with diabetes mellitus (STZ). Conditions: oral 0.3 mg/kg once daily, after 4 weeks; for amount of urinary albumin excretion: 24-hour urine. The assay is classed as in vivo, SD rats. The procedure:
Seven-to eight-week SD rats (having weights up to 200 to 250 g during fasting) were used and fasted for 20 hours, and then intraperitoneally administered with 60 mg/ml/kg of streptozotocin (STZ) prepared with a 2 mmol/l citric acid buffer (pH 4.5). At the same time, the control rats were injected with the same amount of a 2 mmol/l citric acid buffer (pH 4.5).
The test substance was given daily for 4 weeks after the treatment with STZ. After 4 weeks of the treatment with the test substance, 24-hour urine collection was performed using metabolic cages.

Sequence of human VAP-1 enzyme (SSAO) (Q16853 whole entry): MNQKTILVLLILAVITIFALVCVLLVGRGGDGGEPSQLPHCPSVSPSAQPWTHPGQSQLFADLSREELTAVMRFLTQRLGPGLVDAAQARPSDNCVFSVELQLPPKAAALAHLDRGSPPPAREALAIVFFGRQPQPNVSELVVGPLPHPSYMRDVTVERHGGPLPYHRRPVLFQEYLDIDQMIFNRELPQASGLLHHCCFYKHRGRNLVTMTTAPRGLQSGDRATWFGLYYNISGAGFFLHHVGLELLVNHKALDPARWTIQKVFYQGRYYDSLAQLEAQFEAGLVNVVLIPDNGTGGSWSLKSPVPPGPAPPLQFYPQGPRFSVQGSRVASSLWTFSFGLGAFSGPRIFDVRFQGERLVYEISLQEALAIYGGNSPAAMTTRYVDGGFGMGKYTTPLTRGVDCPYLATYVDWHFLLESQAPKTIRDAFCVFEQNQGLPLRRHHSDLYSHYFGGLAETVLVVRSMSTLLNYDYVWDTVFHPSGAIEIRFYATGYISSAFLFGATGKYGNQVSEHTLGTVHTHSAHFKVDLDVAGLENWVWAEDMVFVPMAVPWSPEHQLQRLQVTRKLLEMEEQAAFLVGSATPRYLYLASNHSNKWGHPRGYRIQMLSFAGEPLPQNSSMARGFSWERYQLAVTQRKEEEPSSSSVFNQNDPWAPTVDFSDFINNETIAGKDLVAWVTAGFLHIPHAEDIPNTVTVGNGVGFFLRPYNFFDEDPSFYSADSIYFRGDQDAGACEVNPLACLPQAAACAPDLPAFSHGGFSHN
Sequence of rat VAP-1 enzyme (SSAO) (O08590 whole entry): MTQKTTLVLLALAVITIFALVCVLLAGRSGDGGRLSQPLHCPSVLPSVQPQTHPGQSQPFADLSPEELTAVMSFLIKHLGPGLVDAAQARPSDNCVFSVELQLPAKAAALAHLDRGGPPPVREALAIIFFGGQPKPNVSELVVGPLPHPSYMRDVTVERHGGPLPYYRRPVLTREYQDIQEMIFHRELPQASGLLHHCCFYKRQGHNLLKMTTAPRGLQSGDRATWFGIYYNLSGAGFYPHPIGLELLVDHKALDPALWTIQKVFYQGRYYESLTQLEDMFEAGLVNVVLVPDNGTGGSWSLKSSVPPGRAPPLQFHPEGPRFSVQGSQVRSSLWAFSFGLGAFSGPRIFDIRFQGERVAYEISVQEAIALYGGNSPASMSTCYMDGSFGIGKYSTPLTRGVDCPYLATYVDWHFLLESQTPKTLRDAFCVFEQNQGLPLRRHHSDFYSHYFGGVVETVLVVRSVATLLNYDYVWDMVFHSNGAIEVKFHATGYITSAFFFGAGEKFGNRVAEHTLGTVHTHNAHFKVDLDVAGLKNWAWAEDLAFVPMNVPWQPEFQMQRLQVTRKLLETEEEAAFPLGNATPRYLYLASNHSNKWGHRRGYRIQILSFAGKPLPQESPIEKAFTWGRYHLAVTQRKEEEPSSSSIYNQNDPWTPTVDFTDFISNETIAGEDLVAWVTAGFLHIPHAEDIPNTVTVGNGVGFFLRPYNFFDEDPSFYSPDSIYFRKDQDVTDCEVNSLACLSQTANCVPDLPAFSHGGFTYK

Compound `CC(=O)N1CCC(COc2ncc(-c3cccc(COC(=O)NC(=N)N)c3F)cn2)CC1` [Example 11] came in with an IC50 in assay [1] of 2.2 nM. The compound also gave an IC50 in assay [2] of 5.2 nM. In assay [3], the “Inhibition Ratio (%) 1 h” value amounted to 64%, the “Inhibition Ratio (%) 3 h” value was determined as 70%, the “Inhibition Ratio (%) 6 h” value was 63% and the “Inhibition Ratio (%) 24 h” value was 12%. In assay [4], the “urinary albumin excretion relative to that of the control group” value is 1.5 times and the “amount of urinary albumin excretion” value amounted to 103 mg/gCr.
Regarding `COCc1ccc(N2CCN(c3cccc(COC(=O)NC(=N)N)c3F)CC2)cn1` [Example 554], in assay [1], the IC50 was 0.97 nM. Moreover, half-maximal inhibition in assay [2] (IC50) required 21 nM. In assay [3], the “Inhibition Ratio (%) 1 h” value worked out at 99%, the “Inhibition Ratio (%) 3 h” value came to 100%, the “Inhibition Ratio (%) 6 h” value turned out to be 87% and the “Inhibition Ratio (%) 24 h” value amounted to 72%.
For the compound `Cc1cc(COC2CN(c3cccc(COC(=O)NC(=N)N)c3F)C2)cc(C)n1` [Example 555], in assay [1], the concentration for half-maximal inhibition (IC50) is 3.5 nM. In assay [2], this compound yielded an IC50 of 20 nM. In addition, in assay [3], the “Inhibition Ratio (%) 1 h” value is recorded as 67%, the “Inhibition Ratio (%) 3 h” value is on record as 69%, the “Inhibition Ratio (%) 6 h” value was 54% and the “Inhibition Ratio (%) 24 h” value is 27%.
For the compound `N=C(N)NC(=O)OCc1cccc(N2CCN(c3ccn4ccnc4c3)CC2)c1F` [Example 556], inhibition in assay [1] was half-maximal at 1.3 nM (IC50). This compound also registered an IC50 in assay [2] of 2.7 nM. Moreover, in assay [3], the “Inhibition Ratio (%) 1 h” value was 55%, the “Inhibition Ratio (%) 3 h” value is recorded as 70%, the “Inhibition Ratio (%) 6 h” value was determined as 46% and the “Inhibition Ratio (%) 24 h” value is 19%.
In turn, `Cn1cc(OC2CN(c3cccc(COC(=O)NC(=N)N)c3F)C2)ccc1=O` [Example 557] registered a half-maximal inhibitory concentration (IC50) in assay [1] of 1.6 nM. This compound yielded a half-inhibitory concentration (IC50) in assay [2] of 11 nM. In assay [3], the “Inhibition Ratio (%) 1 h” value turned out to be 53%, the “Inhibition Ratio (%) 3 h” value is 71%, the “Inhibition Ratio (%) 6 h” value is listed as 56% and the “Inhibition Ratio (%) 24 h” value was determined as 22%. Further, in assay [4], the “urinary albumin excretion relative to that of the control group” value is 2.3 times and the “amount of urinary albumin excretion” value came out at 105 mg/gCr.
In the case of `COCc1cncc(N2CCN(c3cccc(COC(=O)NC(=N)N)c3F)CC2)c1` [Example 558], in assay [1], the IC50 was found to be 1.2 nM. Half-maximal inhibition in assay [2] (IC50) required 23 nM. In assay [3], the “Inhibition Ratio (%) 1 h” value stood at 84%, the “Inhibition Ratio (%) 3 h” value was 87%, the “Inhibition Ratio (%) 6 h” value turned out to be 81% and the “Inhibition Ratio (%) 24 h” value worked out at 62%.
As to `CC(=O)N1CCC(C2CN(c3cccc(COC(=O)NC(=N)N)c3F)C2)CC1` [Example 559], the concentration for half-maximal inhibition (IC50) in assay [1] was found to be 0.81 nM. In addition, the IC50 in assay [2] amounted to 4.3 nM. For the same compound, in assay [3], the “Inhibition Ratio (%) 1 h” value stood at 86%, the “Inhibition Ratio (%) 3 h” value was 89%, the “Inhibition Ratio (%) 6 h” value stood at 82% and the “Inhibition Ratio (%) 24 h” value was determined as 59%.
As for `CCC(=O)N1CCC(C2CN(c3cccc(COC(=O)NC(=N)N)c3F)C2)CC1` [Example 560], in assay [1], the IC50 came out at 1.4 nM. In assay [2], this compound yielded an IC50 of 9 nM. Besides, in assay [3], the “Inhibition Ratio (%) 1 h” value is 89%, the “Inhibition Ratio (%) 3 h” value turned out to be 91%, the “Inhibition Ratio (%) 6 h” value is recorded as 84% and the “Inhibition Ratio (%) 24 h” value is 58%.
In assay [1], `N=C(N)NC(=O)OCc1cccc(N2CC(C3CCN(C(=O)C4CC4)CC3)C2)c1F` [Example 561] showed a concentration for half-maximal inhibition (IC50) of 1.6 nM. The compound also came in with an IC50 in assay [2] of 9.6 nM. Further, in assay [3], the “Inhibition Ratio (%) 1 h” value stood at 91%, the “Inhibition Ratio (%) 3 h” value was found to be 92%, the “Inhibition Ratio (%) 6 h” value amounted to 85% and the “Inhibition Ratio (%) 24 h” value amounted to 64%.
In turn, `COCC(=O)N1CCC(C2CN(c3cccc(COC(=O)NC(=N)N)c3F)C2)CC1` [Example 562] gave an IC50 in assay [1] of 1.4 nM. This compound also registered a 50% inhibitory concentration (IC50) in assay [2] of 14 nM. Also, in assay [3], the “Inhibition Ratio (%) 1 h” value was 79%, the “Inhibition Ratio (%) 3 h” value was 81%, the “Inhibition Ratio (%) 6 h” value is listed as 78% and the “Inhibition Ratio (%) 24 h” value is 37%.
As for `COCCC(=O)N1CCC(C2CN(c3cccc(COC(=O)NC(=N)N)c3F)C2)CC1` [Example 563], half-maximal inhibition in assay [1] (IC50) required 1.5 nM. Also, the IC50 in assay [2] was 20 nM. Moreover, in assay [3], the “Inhibition Ratio (%) 1 h” value was found to be 69%, the “Inhibition Ratio (%) 3 h” value is 77%, the “Inhibition Ratio (%) 6 h” value was found to be 70% and the “Inhibition Ratio (%) 24 h” value is listed as 43%.
The compound `CS(=O)(=O)N1CCC(C2CN(c3cccc(COC(=O)NC(=N)N)c3F)C2)CC1` [Example 564] yielded a half-maximal inhibitory concentration (IC50) in assay [1] of 1.5 nM. This compound also gave a concentration for half-maximal inhibition (IC50) in assay [2] of 19 nM. Further, in assay [3], the “Inhibition Ratio (%) 1 h” value was 89%, the “Inhibition Ratio (%) 3 h” value stood at 90%, the “Inhibition Ratio (%) 6 h” value came out at 85% and the “Inhibition Ratio (%) 24 h” value was 59%.
The compound `COCCOc1cc(N2CCN(c3cccc(COC(=O)NC(=N)N)c3F)CC2)ccn1` [Example 565] had an IC50 in assay [1] of 2.5 nM. In addition, in assay [2], 19 nM corresponded to half-maximal inhibition (IC50). Moreover, in assay [3], the “Inhibition Ratio (%) 1 h” value is reported as 77%, the “Inhibition Ratio (%) 3 h” value was determined as 83%, the “Inhibition Ratio (%) 6 h” value is recorded as 71% and the “Inhibition Ratio (%) 24 h” value was found to be 47%.
In turn, `COCc1cc(N2CCN(c3cccc(COC(=O)NC(=N)N)c3F)CC2)ccn1` [Example 566] yielded an IC50 in assay [1] of 1.2 nM. This compound registered an IC50 in assay [2] of 6.3 nM. For the same compound, in assay [3], the “Inhibition Ratio (%) 1 h” value turned out to be 75%, the “Inhibition Ratio (%) 3 h” value stood at 74%, the “Inhibition Ratio (%) 6 h” value worked out at 70% and the “Inhibition Ratio (%) 24 h” value amounted to 38%.

The values are drawn from patent US9556160B2, “Guanidine compound” (Astellas Pharma Inc., priority 2011, dated 2017).
